This passage reports Ki results from patent US12492181B2, “Gem-disubstituted piperidine melanocortin subtype-2 receptor (MC2R) antagonists and uses thereof” (Crinetics Pharmaceuticals, Inc., priority 2019, dated 2025).

SMILES strings stand for the structures. pKi: −log10 of the molar value. Some results are limits rather than exact numbers.

The target of the assay is T1, hMC2 receptor (crude hMC2R membranes from CRE-bla-CHO-K1 cells stably expressing hMC2 receptor and hMRAP accessory protein) (Homo sapiens, UniProt Q01718).
T1 construct: crude membrane fractions
T1 sequence (Q01718 whole entry): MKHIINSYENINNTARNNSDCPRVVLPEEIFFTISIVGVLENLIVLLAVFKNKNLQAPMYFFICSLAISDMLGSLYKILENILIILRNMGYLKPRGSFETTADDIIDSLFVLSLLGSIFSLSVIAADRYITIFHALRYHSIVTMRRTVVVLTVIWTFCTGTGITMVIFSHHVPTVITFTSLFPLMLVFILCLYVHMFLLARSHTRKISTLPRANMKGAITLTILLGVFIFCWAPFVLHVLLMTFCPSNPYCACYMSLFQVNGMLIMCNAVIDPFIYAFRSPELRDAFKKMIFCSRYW
T1 sequence (Q8TCY5 whole entry partner): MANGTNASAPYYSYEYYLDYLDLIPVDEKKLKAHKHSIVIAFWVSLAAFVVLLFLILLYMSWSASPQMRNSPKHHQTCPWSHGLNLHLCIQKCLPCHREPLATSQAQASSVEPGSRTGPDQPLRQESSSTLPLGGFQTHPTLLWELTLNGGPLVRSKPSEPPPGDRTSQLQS
Description: hMC2 membrane binding assay ([125I]ACTH (1-39) Tyr23, SPA). Particulars: displacement of 0.2 nM [125I]ACTH (1-39) Tyr23 from hMC2R membranes, 1.5 hours at room temperature; read-out: MC2R binding potency. An outline of the steps:
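Crude membranes from CRE-bla-CHO-K1 cells stably co-expressing hMC2R and hMRAP, premixed with WGA PVT SPA beads in pH 7.4 HEPES buffer (5 mM MgCl2, 1 mM CaCl2, 0.20% BSA, protease inhibitors). Compounds compete with [125I]ACTH(1-39) Tyr23, read by scintillation. Ki from non-linear regression.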
As to `Cn1cccc1-c1ccc(C2(C(=O)N[C@@H]3C[C@@H]3N)CCN(c3ccc(C(F)(F)F)cc3C#N)CC2)cn1` (racemic) [Compound 1-258, rac-N-[(1R,2S)-2-aminocyclopropyl]-1-[2-cyano-4-(trifluoromethyl)phenyl]-4-[6-(1-methyl-1H-pyrrol-2-yl)pyridin-3-yl]piperidine-4-carboxamide], the pKi is greater than 8.00. Under `CCOc1ncccc1-c1ccc(C2(C(=O)N[C@H]3CCN(C)C3)CCN(c3ccc(C(F)(F)F)cc3F)CC2)cn1` [Compound 1-186, 4-{2′-ethoxy-[2,3′-bipyridin]-5-yl}-1-[2-fluoro-4-(trifluoromethyl)phenyl]-N-[(3S)-1-methylpyrrolidin-3-yl]piperidine-4-carboxamide] stands greater than 8.00. As for `COc1ccccc1-c1ccc(C2(C(=O)N[C@@H]3CNC[C@H]3F)CCN(c3ccc(C(F)(F)F)cc3C#N)CC2)cn1` [Compound 1-238, 1-[2-cyano-4-(trifluoromethyl)phenyl]-N-[(3R,4R)-4-fluoropyrrolidin-3-yl]-4-[6-(2-methoxyphenyl)pyridin-3-yl]piperidine-4-carboxamide], the figure is greater than 8.00; as for `CN1CC[C@@H](NC(=O)C2(c3ccc(-c4cc5ccccc5n4C)nc3)CCN(c3ccc(C(F)(F)F)cc3C#N)CC2)C1` [Compound 1-191, 1-[2-cyano-4-(trifluoromethyl)phenyl]-4-[6-(1-methyl-1H-indol-2-yl)pyridin-3-yl]-N-[(3R)-1-methylpyrrolidin-3-yl]piperidine-4-carboxamide], 7.00 to 8.00; as for `COc1ccccc1-c1ccc(C2(C(=O)N[C@@H]3CN(C)C[C@H]3F)CCN(c3ccc(C(F)(F)F)cc3C#N)CC2)cn1` [Compound 1-243, 1-[2-cyano-4-(trifluoromethyl)phenyl]-N-[(3R,4R)-4-fluoro-1-methylpyrrolidin-3-yl]-4-[6-(2-methoxyphenyl)pyridin-3-yl]piperidine-4-carboxamide], greater than 8.00. As for `Cn1cccc1-c1ccc(C2(C(=O)NCCCN)CCN(c3ccc(C(F)(F)F)cc3C#N)CC2)cn1` [Compound 1-205, N-(3-aminopropyl)-1-[2-cyano-4-(trifluoromethyl)phenyl]-4-[6-(1-methyl-1H-pyrrol-2-yl)pyridin-3-yl]piperidine-4-carboxamide], the figure is 7.00 to 8.00; as for `CCOc1ncccc1-c1ccc(C2(NC(=O)C3CN(C)C3)CCN(c3ccc(C(F)(F)F)cc3C#N)CC2)cn1` [Compound 2-32, N-{1-[2-cyano-4-(trifluoromethyl)phenyl]-4-{2′-ethoxy-[2,3′-bipyridin]-5-yl}piperidin-4-yl}-1-methylazetidine-3-carboxamide], greater than 8.00; as for `CCOc1ccccc1-c1ccc(C2(C(=O)NCCN(C)C)CCN(c3ccc(C(F)(F)F)cc3Cl)CC2)cn1` [Compound 1-228, 1-[2-chloro-4-(trifluoromethyl)phenyl]-N-[2-(dimethylamino)ethyl]-4-[6-(2-ethoxyphenyl)pyridin-3-yl]piperidine-4-carboxamide], greater than 8.00. `COc1ccccc1-c1ncc(C2(C(=O)NCCN(C)C)CCN(c3ccc(C(F)(F)F)cc3F)CC2)cc1F` [Compound 1-285, N-[2-(dimethylamino)ethyl]-1-[2-fluoro-4-(trifluoromethyl)phenyl]-4-[5-fluoro-6-(2-methoxyphenyl)pyridin-3-yl]piperidine-4-carboxamide]: the pKi was greater than 8.00. As for `CCOc1ccccc1-c1ccc(C2(C(=O)N[C@H]3CCN(C)C3)CCN(c3ccc(Cl)cc3Cl)CC2)cn1` [Compound 1-95, 1-(2,4-dichlorophenyl)-4-[6-(2-ethoxyphenyl)pyridin-3-yl]-N-[(3S)-1-methylpyrrolidin-3-yl]piperidine-4-carboxamide], the figure is greater than 8.00; as for `CCOc1ncccc1-c1ccc(C2(C(=O)N[C@H]3CCN(C)C3)CCN(c3ccc(C(F)(F)F)cc3C#N)CC2)nn1` [Compound 1-56, 1-[2-cyano-4-(trifluoromethyl)phenyl]-4-[6-(2-ethoxypyridin-3-yl)pyridazin-3-yl]-N-[(3S)-1-methylpyrrolidin-3-yl]piperidine-4-carboxamide], greater than 8.00; as for `CN1C[C@H](F)C[C@H]1CNC(=O)C1(c2ccc(-c3cccn3C)nc2)CCN(c2ccc(C(F)(F)F)cc2C#N)CC1` [Compound 1-278, 1-[2-cyano-4-(trifluoromethyl)phenyl]-N-{[(2S,4R)-4-fluoro-1-methylpyrrolidin-2-yl]methyl}-4-[6-(1-methyl-1H-pyrrol-2-yl)pyridin-3-yl]piperidine-4-carboxamide], greater than 8.00. Under `CCOc1ncccc1-c1ccc(C2(C(=O)N[C@H]3CCNC3)CCN(c3ccc(C(F)(F)F)cc3C#N)CC2)cn1` [Compound 1-12, 1-[2-cyano-4-(trifluoromethyl)phenyl]-4-{2′-ethoxy-[2,3′-bipyridin]-5-yl}-N-[(3S)-pyrrolidin-3-yl]piperidine-4-carboxamide] stands greater than 8.00; under `CN1CC[C@@H](C(=O)NC2(c3ccc(-c4cccn4C)nc3)CCN(c3ccc(C(F)(F)F)cc3C#N)CC2)C1` [Compound 2-47, (3R)—N-{1-[2-cyano-4-(trifluoromethyl)phenyl]-4-[6-(1-methyl-1H-pyrrol-2-yl)pyridin-3-yl]piperidin-4-yl}-1-methylpyrrolidine-3-carboxamide], greater than 8.00; under `COc1ccccc1-c1ccc(C2(C(=O)NC[C@@H]3CCN3C)CCN(c3ccc(C(F)(F)F)cc3C#N)CC2)cn1` [Compound 1-217, 1-[2-cyano-4-(trifluoromethyl)phenyl]-4-[6-(2-methoxyphenyl)pyridine-3-yl]-N-{[(2S)-1-methylazetidin-2-yl]methyl}piperidine-4-carboxamide], greater than 8.00.

Turning to `COc1ccccc1-c1ncc(C2(NC(=O)N[C@H]3CCN(C)C3)CCN(c3ccc(C(F)(F)F)cc3C#N)CC2)cc1F` [Compound 2-51, 1-{1-[2-cyano-4-(trifluoromethyl)phenyl]-4-[5-fluoro-6-(2-methoxyphenyl)pyridin-3-yl]piperidin-4-yl}-3-[(3S)-1-methylpyrrolidin-3-yl]urea], the pKi was greater than 8.00. As for `CC(=O)c1sccc1-c1ccc(C2(C(=O)N[C@H]3CCN(C)C3)CCN(c3ccc(C(F)(F)F)cc3C#N)CC2)cn1` [Compound 1-146, 4-[6-(2-acetylthiophen-3-yl)pyridin-3-yl]-1-[2-cyano-4-(trifluoromethyl)phenyl]-N-[(3S)-1-methylpyrrolidin-3-yl]piperidine-4-carboxamide], the figure is greater than 8.00; as for `CCOc1ncccc1-c1ncc(C2(C(=O)N[C@H]3CCN(C)C3)CCN(c3ccc(C(F)(F)F)cc3C#N)CC2)cc1F` [Compound 1-109, 1-[2-cyano-4-(trifluoromethyl)phenyl]-4-{2′-ethoxy-3-fluoro-[2,3′-bipyridin]-5-yl}-N-[(3S)-1-methylpyrrolidin-3-yl]piperidine-4-carboxamide], greater than 8.00; as for `CCOc1ncccc1-c1ccc(C2(C(=O)NCCN(C)C)CCN(c3ccc(C(F)(F)F)cc3Cl)CC2)cn1` [Compound 1-224, 1-[2-chloro-4-(trifluoromethyl)phenyl]-N-[2-(dimethylamino)ethyl]-4-{2′-ethoxy-[2,3′-bipyridin]-5-yl}piperidine-4-carboxamide], greater than 8.00. As for `COc1c(F)cccc1-c1ccc(C2(C(=O)N[C@@H]3CCN(C)C3)CCN(c3ccc(C(F)(F)F)cc3C#N)CC2)cn1` [Compound 1-82, 1-[2-cyano-4-(trifluoromethyl)phenyl]-4-[6-(3-fluoro-2-methoxyphenyl)pyridin-3-yl]-N-[(3R)-1-methylpyrrolidin-3-yl]piperidine-4-carboxamide], the figure is greater than 8.00; as for `CN(C)[C@@H](CO)CNC(=O)C1(c2ccc(-c3cccn3C)nc2)CCN(c2ccc(C(F)(F)F)cc2C#N)CC1` [Compound 1-275, 1-[2-cyano-4-(trifluoromethyl)phenyl]-N-[(2R)-2-(dimethylamino)-3-hydroxypropyl]-4-[6-(1-methyl-1H-pyrrol-2-yl)pyridin-3-yl]piperidine-4-carboxamide], greater than 8.00. As for `CCOc1ncccc1-c1ccc(C2(C(=O)N[C@H]3CCN(C)C3)CCN(c3ccc(OC(F)(F)F)cc3C#N)CC2)cn1` [Compound 1-39, 1-[2-cyano-4-(trifluoromethoxy)phenyl]-4-{2′-ethoxy-[2,3′-bipyridin]-5-yl}-N-[(3S)-1-methylpyrrolidin-3-yl]piperidine-4-carboxamide], the figure is greater than 8.00. Take `CN(C)CCCNC(=O)C1(c2ccc(-c3cccn3C)nc2)CCN(c2ccc(C(F)(F)F)cc2C#N)CC1` [Compound 1-207, 1-[2-cyano-4-(trifluoromethyl)phenyl]-N-[3-(dimethylamino)propyl]-4-[6-(1-methyl-1H-pyrrol-2-yl)pyridin-3-yl]piperidine-4-carboxamide]: the pKi was greater than 8.00. Under `CN(C)CCNC(=O)C1(c2ccc(-c3cccn3C)nc2)CCN(c2ccc(C(F)(F)F)cc2C#N)CC1` [Compound 1-216, 1-[2-cyano-4-(trifluoromethyl)phenyl]-N-[2-(dimethylamino)ethyl]-4-[6-(1-methyl-1H-pyrrol-2-yl)pyridin-3-yl]piperidine-4-carboxamide] stands greater than 8.00; under `CCOc1ncccc1-c1ccc(C2(C(=O)N[C@@H](C)CNC)CCN(c3ccc(C(F)(F)F)cc3F)CC2)cn1` [Compound 1-321, 4-{2′-ethoxy-[2,3′-bipyridin]-5-yl}-1-[2-fluoro-4-(trifluoromethyl)phenyl]-N-[(2S)-1-(methylamino)propan-2-yl]piperidine-4-carboxamide], greater than 8.00; under `COc1ncc(F)cc1-c1ccc(C2(C(=O)N[C@@H]3CCN(C)C3)CCN(c3ccc(C(F)(F)F)cc3C#N)CC2)cn1` [Compound 1-86, 1-[2-cyano-4-(trifluoromethyl)phenyl]-4-{5′-fluoro-2′-methoxy-[2,3′-bipyridin]-5-yl}-N-[(3R)-1-methylpyrrolidin-3-yl]piperidine-4-carboxamide], greater than 8.00.
